Data from patent US9480259B2, “Pyrazolopyrans having herbicidal and pharmaceutical properties” (BASF SE, priority 2012, dated 2016).

Molecular target: Arabidopsis thaliana SHMT
Assay: SHMT activity assay (ED50 SHMT), coupled with N5,N10-CH2-THF dehydrogenase, NADH at 340 nm
Type: biochemical
Conditions: values given as upper bounds
Method in brief: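 His-tagged SHMT purified on Ni-NTA. NADH formation followed at 340 nm for 30 min; ED50 from inhibition of initial velocity.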

[1] = Table 2, Arabidopsis thaliana SHMT enzyme assay

Row | SMILES | EC50 (Table 2) | EC50 [1]
1 | Cc1n[nH]c2c1C(c1ccc(Cl)c(Cl)c1)(C1CCC1)C(C#N)=C(N)O2 (stereo not shown) [Compound 2.193.] | < 10 nM | –
2 | N#CC1=C(N)Oc2[nH]nc(C(F)F)c2C1(c1cccc(C#N)c1)C1CCC1 (stereo not shown) [Compound 2.194.] | < 1000 nM | –
3 | N#CC1=C(N)Oc2[nH]ncc2C1(c1cccc(C(F)(F)F)c1)C1CCC1 (stereo not shown) [Compound 2.195.] | < 1000 nM | –
4 | COCc1n[nH]c2c1C(c1cccc(C(F)(F)F)c1)(C1CCC1)C(C#N)=C(N)O2 (stereo not shown) [Compound 2.196.] | < 1000 nM | –
5 | CCCCCCc1n[nH]c2c1C(CC)(c1cccc(Cl)c1)C(C#N)=C(N)O2 (stereo not shown) [Compound 2.197.] | < 1000 nM | –
6 | Cc1n[nH]c2c1C(c1cc(Cl)cc(-c3ccsc3)c1)(C1CCC1)C(C#N)=C(N)O2 (stereo not shown) [Compound 2.198.] | < 10 nM | –
7 | Cc1n[nH]c2c1C(c1cc(Cl)cc(Cl)c1)(C1CCCC1)C(C#N)=C(N)O2 (stereo not shown) [Compound 2.199.] | < 1000 nM | –
8 | Cc1n[nH]c2c1C(c1cc(Cl)cc(Oc3cccc(F)c3)c1)(C1CCC1)C(C#N)=C(N)O2 (stereo not shown) [Compound 2.200.] | < 100 nM | –
9 | Cc1n[nH]c2c1C(c1cc(Cl)cc(Oc3ccc(F)cc3)c1)(C1CCC1)C(C#N)=C(N)O2 (stereo not shown) [Compound 2.201.] | < 100 nM | –
10 | COc1ccc(C2(C3CCCC3)C(C#N)=C(N)Oc3[nH]nc(C)c32)cc1Cl (stereo not shown) [Compound 2.203.] | < 1000 nM | –
11 | CC(C)CC1(c2cc(Cl)cc(Cl)c2)C(C#N)=C(N)Oc2[nH]ncc21 (stereo not shown) [Compound 2.205.] | < 10000 nM | –
12 | Cc1n[nH]c2c1C(c1cc(Cl)cc(Cl)c1)(C1CCCCC1)C(C#N)=C(N)O2 (stereo not shown) [Compound 2.206.] | < 10000 nM | –
13 | Cc1n[nH]c2c1C(c1cc(Cl)cc(Br)c1)(C1CCC1)C(C#N)=C(N)O2 (stereo not shown) [Compound 2.207.] | < 10 nM | –
14 | COc1ccc(C2(C3CCC3)C(C#N)=C(N)Oc3[nH]nc(C)c32)cc1Br (stereo not shown) [Compound 2.208.] | < 10 nM | –
15 | Cc1n[nH]c2c1C(c1cc(Cl)c(Cl)c(Cl)c1)(C1CCC1)C(C#N)=C(N)O2 (stereo not shown) [Compound 2.209.] | < 10 nM | –
16 | Cc1n[nH]c2c1C(c1ccc(Cl)c(Cl)c1)(C1CCCC1)C(C#N)=C(N)O2 (stereo not shown) [Compound 2.210.] | < 100 nM | –
17 | Cc1n[nH]c2c1C(c1cccc(Cl)c1)(C1CCCC1)C(C#N)=C(N)O2 (stereo not shown) [Compound 2.211.] | < 100 nM | –
18 | Cc1n[nH]c2c1C(c1ccc(Cl)c(Cl)c1)(C1CCCCC1)C(C#N)=C(N)O2 (stereo not shown) [Compound 2.212.] | < 10000 nM | –
19 | Cc1n[nH]c2c1C(c1cccc(C(F)(F)F)c1)(C1CCCC1)C(C#N)=C(N)O2 (stereo not shown) [Compound 2.213.] | < 10 nM | –

Row | SMILES | EC50 (Table 2) | EC50 [1]
20 | Cc1n[nH]c2c1C(c1cc(Cl)cc(Cl)c1)(C1(F)CC1)C(C#N)=C(N)O2 (stereo not shown) [Compound 2.214.] | < 10 nM | –
21 | COc1ccc(C2(C3CCCC3)C(C#N)=C(N)Oc3[nH]nc(C)c32)cc1C(F)(F)F (stereo not shown) [Compound 2.215] | – | < 10 nM
22 | Cc1n[nH]c2c1C(c1cc(Cl)cc(-c3ccoc3)c1)(C1CCC1)C(C#N)=C(N)O2 (stereo not shown) [Compound 2.220] | – | < 10 nM
23 | Cc1n[nH]c2c1C(c1cc(Cl)cc(C(F)(F)F)c1)(C1CCC1)C(C#N)=C(N)O2 (stereo not shown) [Compound 2.221] | – | < 10 nM
24 | COc1ccc(C2(C(C)C)C(C#N)=C(N)Oc3[nH]nc(C)c32)cc1Br (stereo not shown) [Compound 2.222] | – | < 10 nM
25 | Cc1n[nH]c2c1C(c1cc(Cl)cc(-c3cccc(F)c3)c1)(C1CCC1)C(C#N)=C(N)O2 (stereo not shown) [Compound 2.223] | – | < 10 nM
26 | Cc1n[nH]c2c1C(c1cc(Cl)cc(-c3ccc(F)cc3)c1)(C1CCC1)C(C#N)=C(N)O2 (stereo not shown) [Compound 2.224] | – | < 10 nM
27 | Cc1n[nH]c2c1C(c1cc(Cl)cc(-c3ccc(Cl)cc3)c1)(C1CCC1)C(C#N)=C(N)O2 (stereo not shown) [Compound 2.225] | – | < 10 nM
28 | Cc1n[nH]c2c1C(c1cc(Cl)cc(-c3ccc(O)cc3)c1)(C1CCC1)C(C#N)=C(N)O2 (stereo not shown) [Compound 2.226] | – | < 10 nM
29 | Cc1n[nH]c2c1C(c1cc(Cl)cc(-c3cccc(Cl)c3)c1)(C1CCC1)C(C#N)=C(N)O2 (stereo not shown) [Compound 2.227] | – | < 10 nM
30 | Cc1n[nH]c2c1C(c1ccc(F)c(Cl)c1)(C1CCCC1)C(C#N)=C(N)O2 (stereo not shown) [Compound 2.228] | – | < 100 nM
31 | Cc1n[nH]c2c1C(c1cccc(C(F)(F)F)c1)(C1CCCCC1)C(C#N)=C(N)O2 (stereo not shown) [Compound 2.230] | – | < 10000 nM
32 | N#CC1=C(N)Oc2[nH]nc(O)c2C1(c1cc(F)cc(Cl)c1)C1CCC1 (stereo not shown) [Compound 2.231] | – | < 10000 nM
33 | Cc1n[nH]c2c1C(c1cc(Br)cc(Br)c1)(C1CCC1)C(C#N)=C(N)O2 (stereo not shown) [Compound 2.232] | – | < 10 nM
34 | Cc1n[nH]c2c1C(c1cc(Br)cc(C(F)(F)F)c1)(C1CCC1)C(C#N)=C(N)O2 (stereo not shown) [Compound 2.233] | – | < 10 nM
35 | Cc1n[nH]c2c1C(c1cc(Cl)cc(Oc3cccc(C(F)(F)F)c3)c1)(C1CCC1)C(C#N)=C(N)O2 (stereo not shown) [Compound 2.234] | – | < 10 nM
36 | Cc1n[nH]c2c1C(c1cc(Cl)cc(Oc3ccccc3F)c1)(C1CCC1)C(C#N)=C(N)O2 (stereo not shown) [Compound 2.235] | – | < 10 nM
37 | Cc1n[nH]c2c1C(c1cc(Cl)cc(Oc3ccccc3Cl)c1)(C1CCC1)C(C#N)=C(N)O2 (stereo not shown) [Compound 2.236] | – | < 10 nM
